# Experimental data from patent publication US7884067B2, “Peptides derived from cadherin and methods of use thereof” (Mount Sinai School of Medicine of New York University, priority 2001, dated 2011).
# B1: N-Cad/CTF2: chicken cytoplasmic domain of N-cadherin (N-Cad/CTF2) inserted into vector pECE, expressed in L cells (protein)
# chain: KRRDKERQAKQLLIDPEDDVRDNILKYDEEGGGEEDQDYDLSQLQQPDTVEPDAIKPVGIRRLDERPIHAEPQYPVRSAAPHPGDIGDFINEGLKAADNDPTAPPYDSLLVFDYEGSGSTAGSLSSLNSSSSGGEQDYDYLNDWGPRFKKLADMYGGGDD
# Experiments:
# [1] = system: A431 cells; assay: Laser scanning confocal microscopy of ionomycin-induced cell-cell dissociation; assay type: cell-based, human; details: 30 minutes pre-incubation with L-685,458, then ionomycin 45 minutes
# Procedure: Immunoprecipitations (IPs), immunoblotting, immunofluorescence and confocal microscopy. For WB analysis of cell extracts, cells were washed with PBS and then solubilized in RIPA buffer. For IPs cells were solubilized in Hepes buffer (25 mM Hepes [pH 7.4], 150 mM NaCl, 1× Complete protease inhibitor cocktail, Roche) containing 1% digitonin (IPs with I-R222 and PI-R222 antibodies) or 1% Triton X-100 (IPs with β-catenin and desmoglein antibodies). Following centrifugation at 17,000×g for 10 min, supernatants (1 mg protein) were pre-cleared with protein A- or protein G-agarose (Pierce) for 2 hours. Supernatants were then incubated with antibodies overnight at 4° C. and treated for 2 hours with protein A-agarose (polyclonal antibodies) or with protein G-agarose (monoclonal antibodies). IPs were washed with Hepes buffer containing either 1% digitonin or 1% Triton X-100 and analyzed by SDS-PAGE. Immunofluorescence and confocal microscopy was performed as described by Georgakopoulos et al., (1999). Briefly, cells were plated on 22×22 mm collagen-coated glass coverslips, fixed in cold methanol for 10 min at −20° C. Following washing in TBS (25 mM Tris-HCl [pH 7.4], 150 mM NaCl), cells were treated with 10% goat serum in SuperBlock (Pierce) for 1 hour, incubated overnight with primary antibody (1:100), washed in TBS and then were incubated with species specific Alexa Fluor™ secondary antibody conjugates (Molecular Probes). Cells were washed with TBS, mounted with Prolong antifade kit (Molecular Probes), and photographed on a Leica confocal laser scanning microscope.
# The PS1/γ-secretase role in the disassembly of CAJ was further examined using laser scanning confocal microscopy (LSCM). A431 cells were pre-incubated for 30 minutes in the absence or presence of L-685,458 and then treated for 45 minutes with ionomycin. Following the ionomycin-induced cell-cell dissociation, the distribution of PS1, E-cadherin, β-catenin and α-catenin was analyzed by LSCM using the constant detector setting. […]
# [2] = system: N-cadherin; assay: In vitro ε-cleavage assay, membranes from mouse fibroblasts or N2a cell cultures; assay type: biochemical; set-up: dose or concentration left out as unconfirmed; details: cultures incubated 16 hours with L-685,458; membranes 37° C. 2 hours
# Procedure: In vitro γ-secretase-like ε-cleavage assay. Cells were washed in PBS, resuspended in 1 ml of 4° C. hypotonic buffer (10 mM MOPS, pH 7.0, 10 mM KCl) and homogenized on ice. A post-nuclear supernatant was prepared by centrifugation at 1000×g for 15 minutes at 4° C. Crude membranes were isolated from the post-nuclear supernatant by centrifugation at 16,000×g for 40 minutes at 4° C. The membranes were then resuspended in […] of assay buffer (150 mM sodium citrate, pH 6.4, 1× Complete protease inhibitor cocktail), and incubated at 37° C. for 2 hours. Samples were either analyzed directly by WB or separated into pellet (P100) and supernatant (S100) fractions by ultracentrifugation for 1 hour at 100,000×g at 4° C. The S100 and P100 fractions were then analyzed by WB.
# To detect the product of the PS1-dependent cleavage of N-cadherin, an in vitro assay that uses incubation of membrane fractions to detect the ICD product of the E-cleavage of APP was used. (Gu et al. (2001) J. Biol. Chem. 276:35235-35238; McLendon et al. (2000) FASEB J. 14:2383-2386). […]
# [3] = system: CRE-dependent transactivation; assay: CRE-dependent transactivation (luciferase) in L cells; assay type: cell-based; details: L cells transfected with increasing amount of pN-Cad/CTF2, FIG. 9A
# Procedure: (§1) Transactivation assays. CRE-dependent transactivation was measured in the absence or presence of overexpression of PKA (pFC-PKA, Stratagene) by cotransfection with CRE-luciferase reporter plasmid (pCRE-Luc, Stratagene) and pSV-β-galactosidase vector (Promega) to evaluate transfection efficiency. CHOP-mediated transactivation was measured by cotransfection with the Gal4-fusion trans-activator plasmids (pFA-CHOP and pFR-Luc, Stratagene). 30 hours after transfection, luciferase and β-galactosidase activities were determined following manufacturer's instructions using a TD-20/20 luminometer (Turner Designs) and a DU-64 spectrophotometer (Beckman). Values were normalized to β-galactosidase activity and protein concentration.
# (§2) Stimulation of synaptic NMDA receptor leads to phosphorylation of transcription factor CREB that then recruits transcription co-activator CBP, a process ultimately leading to activation of CREB-mediated gene expression (Impey and Goodman (2001) Sci STKE, PE1). […] CRE-dependent transactivation was measured in the absence (−) or presence (+) of […] PKA (pFC-PKA) using CRE-luciferase reporter plasmid (pCRE-Luc) and pSV-β-galactosidase vector. CHOP-mediated transactivation was measured by […] with the Gal4-fusion trans-activator plasmids (pFA-CHOP and pFR-Luc) and pSV-β-galactosidase vector. […]
# [4] = system: CHOP-response elements; assay: CHOP-mediated transactivation (luciferase) in L cells; assay type: cell-based; details: L cells transfected with pN-Cad/CTF2, FIG. 9A
# Procedure: as §1, §2
Molecule,loss of cell surface staining of all epitopes [1],soluble 35 kDa peptide N-Cad/CTF2 [2],constitutive and PKA-stimulated CRE-dependent transactivation [3],transactivation by CHOP-response elements [4]
"CC(C)C[C@H](NC(=O)[C@H](Cc1ccccc1)C[C@@H](O)[C@H](Cc1ccccc1)NC(=O)OC(C)(C)C)C(=O)N[C@@H](Cc1ccccc1)C(N)=O [L-685,458]",significantly delayed,completely absent,,
B1,,,inhibits both constitutive and PKA-stimulated CRE-dependent transactivation in a dose-dependent manner,not affected
